# Reference: PubChem BioAssay (NCI)
# “And” between values parts separate entries of the source, which are not always exact repeats. Equal values may be shown once.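 Five compound concentrations were applied to cells in 96-well plates for 48 hours; endpoints were derived by simple linear interpolation of the resulting dose-response curve. GI50 is the concentration that inhibits growth by half. TGI marks complete inhibition of growth.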
# Key:
# Assay in all cases: growth of human tumour cells (NCI), 48 h
# HCC-2998 colon = system: HCC-2998 colon
# OVCAR-8 ovarian = system: OVCAR-8 ovarian
# UACC-62 melanoma = system: UACC-62 melanoma
# DMS 273 small cell lung = system: DMS 273 small cell lung
# DMS 114 small cell lung = system: DMS 114 small cell lung
# SK-MEL-5 melanoma = system: SK-MEL-5 melanoma
# SW-620 colon = system: SW-620 colon
# CAKI-1 renal = system: CAKI-1 renal
# TK-10 renal = system: TK-10 renal
# KM20L2 colon = system: KM20L2 colon
# DLD-1 colon = system: DLD-1 colon
# U251 CNS = system: U251 CNS
# MDA-N = system: MDA-N
# SNB-78 CNS = system: SNB-78 CNS
# PC-3 prostate = system: PC-3 prostate
# SF-268 CNS = system: SF-268 CNS
# HL-60(TB) leukemia = system: HL-60(TB) leukemia
# NCI-H23 lung = system: NCI-H23 lung
# 786-0 renal = system: 786-0 renal
# HT29 colon = system: HT29 colon
# HCT-116 colon = system: HCT-116 colon
# SR leukemia = system: SR leukemia
# K-562 leukemia = system: K-562 leukemia
# SK-OV-3 ovarian = system: SK-OV-3 ovarian
# UO-31 renal = system: UO-31 renal
# SK-MEL-28 melanoma = system: SK-MEL-28 melanoma
# UACC-257 melanoma = system: UACC-257 melanoma
# T-47D breast = system: T-47D breast
# OVCAR-4 ovarian = system: OVCAR-4 ovarian
# DU-145 prostate = system: DU-145 prostate
# LOX IMVI melanoma = system: LOX IMVI melanoma
# HCT-15 colon = system: HCT-15 colon
# COLO 205 colon = system: COLO 205 colon
# LXFL 529 NSCLC = system: LXFL 529 NSCLC
# SF-295 CNS = system: SF-295 CNS
# MALME-3M melanoma = system: MALME-3M melanoma
# SF-539 CNS = system: SF-539 CNS
# MCF7 breast = system: MCF7 breast
# SK-MEL-2 melanoma = system: SK-MEL-2 melanoma
# A549 NSCLC = system: A549 NSCLC
# M19-MEL melanoma = system: M19-MEL melanoma
# EKVX NSCLC = system: EKVX NSCLC
# IGROV1 ovarian = system: IGROV1 ovarian
# RXF 393 renal = system: RXF 393 renal
# XF 498 CNS = system: XF 498 CNS
# KM12 colon = system: KM12 colon
# NCI-H460 lung = system: NCI-H460 lung
# OVCAR-5 ovarian = system: OVCAR-5 ovarian
# MDA-MB-231 breast = system: MDA-MB-231 breast
# NCI-H226 lung = system: NCI-H226 lung
# HOP-18 NSCLC = system: HOP-18 NSCLC
# MOLT-4 leukemia = system: MOLT-4 leukemia
# CCRF-CEM leukemia = system: CCRF-CEM leukemia
# M14 melanoma = system: M14 melanoma
# OVCAR-3 ovarian = system: OVCAR-3 ovarian
# HS 578T breast = system: HS 578T breast
# SNB-75 CNS = system: SNB-75 CNS
# MDA-MB-435 = system: MDA-MB-435
# SN12C renal = system: SN12C renal
# HOP-62 NSCLC = system: HOP-62 NSCLC
# HOP-92 NSCLC = system: HOP-92 NSCLC
# ACHN renal = system: ACHN renal
# BT-549 breast = system: BT-549 breast
# NCI-H522 lung = system: NCI-H522 lung
# RPMI-8226 leukemia = system: RPMI-8226 leukemia
# SNB-19 CNS = system: SNB-19 CNS
# A498 renal = system: A498 renal
structure (smiles),measurement,setting,value
Cc1nc2c(o1)C(=O)c1ccccc1C2=Nc1ccccc1,TGI,HCC-2998 colon,28.5 µM
same,GI50,OVCAR-8 ovarian,4.16 µM
same,TGI,OVCAR-8 ovarian,9.66 µM
same,GI50,UACC-62 melanoma,2.07 µM
same,TGI,UACC-62 melanoma,3.84 µM and 6.7 µM
same,TGI,DMS 273 small cell lung,6.1 µM
same,GI50,DMS 114 small cell lung,1.78 µM
same,TGI,DMS 114 small cell lung,2.89 µM and 3.69 µM
same,GI50,SK-MEL-5 melanoma,1.73 µM
same,TGI,SK-MEL-5 melanoma,3.1 µM and 2.72 µM
same,GI50,SW-620 colon,3.6 µM
same,TGI,SW-620 colon,7.86 µM
same,TGI,CAKI-1 renal,32 µM
same,TGI,TK-10 renal,41.9 µM
same,TGI,KM20L2 colon,42 µM
same,TGI,DLD-1 colon,29.2 µM
same,TGI,U251 CNS,3.12 µM and 3.7 µM
same,TGI,MDA-N,0.959 µM
same,TGI,SNB-78 CNS,9.13 µM
same,TGI,PC-3 prostate,6.51 µM
same,GI50,SF-268 CNS,3.11 µM
same,TGI,SF-268 CNS,> 31.6 µM
same,GI50,HL-60(TB) leukemia,3.04 µM
same,TGI,HL-60(TB) leukemia,11.6 µM
same,GI50,NCI-H23 lung,2.31 µM
same,TGI,NCI-H23 lung,6.17 µM and 6.48 µM
same,TGI,786-0 renal,> 55.8 µM
same,TGI,HT29 colon,33.3 µM
same,GI50,HCT-116 colon,3.35 µM
same,TGI,HCT-116 colon,5.77 µM
same,TGI,SR leukemia,> 93.5 µM
same,GI50,K-562 leukemia,4.28 µM
same,TGI,K-562 leukemia,> 37.4 µM
same,TGI,SK-OV-3 ovarian,31.2 µM
same,GI50,UO-31 renal,3.66 µM
same,TGI,UO-31 renal,7.62 µM
same,TGI,SK-MEL-28 melanoma,3.91 µM
same,TGI,UACC-257 melanoma,5.46 µM and 4.39 µM
same,TGI,T-47D breast,7.65 µM
same,GI50,OVCAR-4 ovarian,2.15 µM
same,TGI,OVCAR-4 ovarian,6.5 µM and 5.86 µM
same,TGI,DU-145 prostate,3.33 µM
same,TGI,LOX IMVI melanoma,5.2 µM
same,GI50,HCT-15 colon,3.17 µM
same,TGI,HCT-15 colon,7.63 µM
same,TGI,COLO 205 colon,27.1 µM
same,TGI,LXFL 529 NSCLC,12.3 µM
same,GI50,SF-295 CNS,1.95 µM
same,TGI,SF-295 CNS,3.88 µM
same,GI50,MALME-3M melanoma,1.69 µM
same,TGI,MALME-3M melanoma,3.06 µM and 2.66 µM
same,GI50,SF-539 CNS,1.96 µM
same,TGI,SF-539 CNS,3.66 µM and 5.95 µM
same,TGI,MCF7 breast,5.47 µM
same,GI50,SK-MEL-2 melanoma,3.62 µM
same,TGI,SK-MEL-2 melanoma,2.95 µM
same,GI50,A549 NSCLC,13.2 µM
same,TGI,A549 NSCLC,32.3 µM
same,GI50,M19-MEL melanoma,1.55 µM
same,TGI,M19-MEL melanoma,3.24 µM and 2.97 µM
same,GI50,EKVX NSCLC,7.57 µM
same,TGI,EKVX NSCLC,> 31.6 µM
same,TGI,IGROV1 ovarian,20.6 µM
same,TGI,RXF 393 renal,3.3 µM
same,TGI,XF 498 CNS,7.69 µM and 6.99 µM
same,TGI,KM12 colon,14.4 µM
same,TGI,NCI-H460 lung,12.3 µM
same,TGI,OVCAR-5 ovarian,11.8 µM
same,TGI,MDA-MB-231 breast,18.5 µM
same,TGI,NCI-H226 lung,31.9 µM
same,GI50,HOP-18 NSCLC,4.27 µM
same,TGI,HOP-18 NSCLC,3.39 µM and 10.1 µM
same,GI50,MOLT-4 leukemia,4.55 µM and 4.44 µM
same,TGI,MOLT-4 leukemia,34.5 µM
same,GI50,CCRF-CEM leukemia,4.61 µM
same,TGI,CCRF-CEM leukemia,> 65.8 µM
same,GI50,M14 melanoma,1.64 µM
same,TGI,M14 melanoma,3 µM and 2.11 µM
same,GI50,OVCAR-3 ovarian,2.5 µM
same,TGI,OVCAR-3 ovarian,4.52 µM and 8.04 µM
same,TGI,HS 578T breast,5.38 µM
same,TGI,SNB-75 CNS,3.94 µM and 3.81 µM
same,TGI,MDA-MB-435,1.09 µM
same,GI50,SN12C renal,2.99 µM
same,TGI,SN12C renal,7.38 µM and 6.18 µM
same,TGI,HOP-62 NSCLC,6.05 µM
same,TGI,HOP-92 NSCLC,6.07 µM
same,GI50,ACHN renal,4.72 µM
same,TGI,ACHN renal,> 37.7 µM
same,TGI,BT-549 breast,3.13 µM
same,GI50,NCI-H522 lung,3.21 µM
same,TGI,NCI-H522 lung,7.81 µM and 4.27 µM
same,GI50,RPMI-8226 leukemia,4.43 µM
same,TGI,RPMI-8226 leukemia,11.1 µM
same,GI50,SNB-19 CNS,11 µM
same,TGI,SNB-19 CNS,23 µM
CC[C@@]1(O)C(=O)OCc2c1cc1n(c2=O)Cc2c-1nc1ccccc1c2Cl,TGI,HCC-2998 colon,9.58 µM
same,TGI,OVCAR-8 ovarian,2.13 µM
same,TGI,UACC-62 melanoma,0.107 µM
same,TGI,DMS 273 small cell lung,0.578 µM
same,TGI,DMS 114 small cell lung,2.06 µM
same,TGI,SK-MEL-5 melanoma,0.134 µM
same,TGI,SW-620 colon,39.7 µM
same,TGI,CAKI-1 renal,1.99 µM
same,TGI,TK-10 renal,80.8 µM
same,TGI,KM20L2 colon,28.7 µM
same,TGI,DLD-1 colon,63.4 µM
same,TGI,U251 CNS,0.445 µM
same,TGI,SNB-78 CNS,87.5 µM
same,TGI,PC-3 prostate,> 100 µM
same,TGI,SF-268 CNS,12.6 µM
same,TGI,HL-60(TB) leukemia,0.132 µM
same,TGI,NCI-H23 lung,0.028 µM
same,TGI,786-0 renal,0.126 µM
same,TGI,HT29 colon,5.62 µM
same,TGI,HCT-116 colon,1.11 µM
same,TGI,SR leukemia,0.186 µM
same,TGI,K-562 leukemia,> 100 µM
same,TGI,SK-OV-3 ovarian,4.29 µM
same,TGI,UO-31 renal,0.109 µM
same,TGI,SK-MEL-28 melanoma,63.9 µM
same,TGI,UACC-257 melanoma,7.01 µM
same,TGI,T-47D breast,0.349 µM
same,TGI,OVCAR-4 ovarian,4.61 µM
same,TGI,DU-145 prostate,0.104 µM
same,TGI,LOX IMVI melanoma,0.387 µM
same,TGI,HCT-15 colon,39.5 µM
same,TGI,COLO 205 colon,27.4 µM
same,TGI,LXFL 529 NSCLC,34.7 µM
same,TGI,SF-295 CNS,0.511 µM
same,TGI,MALME-3M melanoma,12.6 µM
same,TGI,SF-539 CNS,0.022 µM
same,TGI,SK-MEL-2 melanoma,7.72 µM
same,TGI,A549 NSCLC,3.76 µM
same,TGI,M19-MEL melanoma,3.43 µM
same,TGI,EKVX NSCLC,33.6 µM
same,TGI,IGROV1 ovarian,16 µM
same,TGI,RXF 393 renal,0.116 µM
same,TGI,XF 498 CNS,2.15 µM
same,TGI,KM12 colon,1.83 µM
same,TGI,NCI-H460 lung,0.101 µM
same,TGI,OVCAR-5 ovarian,3.65 µM
same,TGI,MDA-MB-231 breast,> 80.3 µM
same,TGI,NCI-H226 lung,0.022 µM
same,TGI,HOP-18 NSCLC,18.3 µM
same,TGI,MOLT-4 leukemia,0.113 µM
same,TGI,CCRF-CEM leukemia,0.172 µM
same,TGI,M14 melanoma,0.318 µM
same,TGI,OVCAR-3 ovarian,4.84 µM
same,TGI,HS 578T breast,43.3 µM
same,TGI,SNB-75 CNS,0.259 µM
same,TGI,SN12C renal,0.683 µM
same,TGI,HOP-62 NSCLC,0.0206 µM
same,TGI,HOP-92 NSCLC,2.07 µM
same,TGI,ACHN renal,0.0684 µM
same,TGI,BT-549 breast,4.89 µM
same,TGI,NCI-H522 lung,1.28 µM
same,TGI,A498 renal,0.352 µM
same,TGI,RPMI-8226 leukemia,1.42 µM
same,TGI,SNB-19 CNS,15.5 µM
